SMILES strings stand for the structures.

One data set concerns BDNF protein expression. Nature of the data set: BDNF immunohistochemistry of brain sections of PTZ-kindled mice (ImageJ densitometry). Type of data set: in vivo. The following applies: cortical region, kindled animals; normal control 29.53±3.9, PTZ control 57.6±13.6. As for the experimental part:
(§1) Animals were sacrificed 24 hrs after establishment of complete kindling. Cardiac perfusion with chilled PBS buffer (NaCl—8 g, KCl—0.2 g, Na2HPO4×12 H2O—2.85 g, KH2PO4—0.2 g; pH 7.4) containing heparin was performed. Whole brains were removed, post-fixed in ice-cold 2% PFA for 24 hrs at +4° C. and then placed in 30% sucrose until brain samples sank to the bottom of the container. The samples were stored at −80° C. until further processing.
Frozen brain samples were cut into […] thick sections and directly taken on poly L-lysine coated slides and kept at −20° C. overnight. The cryosections were incubated overnight at 4° C. with primary antibody i.e. purified c-Fos (4): sc-52 for c-Fos detection and BDNF (N-20): sc-546 for BDNF detection independently. […]
Expression of c-Fos and BDNF protein observed under the fluorescent microscope was analyzed by using software ImageJ (NIH, USA). […] For each image, background density was determined and subtracted; the remaining particles were considered to represent c-Fos or BDNF expression. […]
(§2) Data is presented as mean±standard error of the mean (S.E.M.). The seizure activity was analyzed by nonparametric Mann-Whitney U tests. The immunostaining data was analyzed by one-way ANOVA with post hoc Dunnett's multiple comparison tests. Sequential differences among means were calculated at the level of P<0.05 using the SPSS version 10.

A further data set has as its system c-Fos protein expression. Nature of the data set: c-Fos immunohistochemistry of brain sections of PTZ-kindled mice (ImageJ densitometry). The note with it: for Fluorescence intensity of c-Fos, Amygdala / Fluorescence intensity of c-Fos, Thalamus / Fluorescence intensity of c-Fos, Hippocampus / Fluorescence intensity of c-Fos, Cortex: PTZ-kindled mice, HHL-6 20 mg/kg, DZP 7.5 mg/kg, mean ± S.E.M.; for Fluorescence intensity of c-Fos, Amygdala: normal control 12.23 ± 2.9, PTZ control 38.17 ± 5.08; for Fluorescence intensity of c-Fos, Thalamus: normal control 12.58 ± 1.79, PTZ control 45.36 ± 3.70; for Fluorescence intensity of c-Fos, Hippocampus: normal control 15.29 ± 2.3, PTZ control 44.27 ± 7.43; for Fluorescence intensity of c-Fos, Cortex: normal control 16.31 ± 1.24, PTZ control 40.69 ± 8.2; for c-Fos staining intensity (FIG. 4B): cortical region, kindled animals, normal control 16.31±1.24, PTZ control 40.69±8.2. The data set is classed as in vivo. As for the experimental part:
as §1
Frozen brain samples were cut into […] thick sections and directly taken on poly L-lysine coated slides and kept at −20° C. overnight. The cryosections were incubated overnight at 4° C. with primary antibody i.e. purified c-Fos (4): sc-52 for c-Fos detection and BDNF (N-20): sc-546 for BDNF detection independently. This was followed by re-incubation with secondary antibody i.e. biotinylated goat anti-mouse IgG (Alexa Flour) for 1 hour at room temperature in dark. The stained sections were observed under fluorescent microscope (Nikon ECLIPSE TE2000-S, Japan). Since the specificity of the primary antibody is very critical therefore, in order to determine specificity, negative controls were also processed by eliminating the step where sections were incubated with their respective primary antibody.
Expression of c-Fos and BDNF protein observed under the fluorescent microscope was analyzed by using software ImageJ (NIH, USA). The image processing program ImageJ helps in multiple imaging system data comparisons taking density (densitometry) in consideration to analyze the images. For each image, background density was determined and subtracted; the remaining particles were considered to represent c-Fos or BDNF expression. Data were obtained from two sections per mouse (n=12 animals per group) and presented as means±S.E.M. cFos and BDNF immunoreactivity in the amygdala, cortex, dorsal hippocampus, and thalamus were centered approximately around 3.6 mm posterior to bregma. Within the hippocampus region, measurements were performed over the layer extending from sub-regions CA1-CA3.
as §2

The conditions of data set [1]: observed 1-2 hr after treatment. The source says:
Animals were transferred into individual cages the day before the experiments to allow them to acclimatize to the new environment. […] For behavioral studies, blind-testing was employed i.e., the experimenter conducting this study was blinded to the given treatment.

In data set [2] the test system is scPTZ-induced seizure in mice. The experiment in a line: subcutaneous PTZ-induced seizure test (scPTZ). The note with it: for mortality in scPTZ test: 20 mg/kg of HHL-6 or 7.5 mg/kg of diazepam, PTZ-control 100% mortality; for protection against scPTZ induced mortality / Onset of jerks / Rearing & falling: diazepam 7.5 mg/kg; for protection against scPTZ induced mortality: mortality within 24 hours; for Onset of jerks / Rearing & falling: i.p. 30 min before s.c. PTZ 90 mg/kg, mean of 6 mice; for Onset of jerks: PTZ-control 190; for Rearing & falling: PTZ-control 640. The data set is classed as in vivo. Here is the method:
(§3) Albino male NMRI mice weighing 20-25 grams were used. The animals were housed under standard laboratory conditions i.e. 12:12 hr light: dark cycle, temperature (21±2° C.) and air humidity controlled environment. Food and water were provided ad libitum. All experiments were carried out in accordance to the International Guidelines for the Use and Care of Laboratory Animals and approved by Scientific Advisory Committee on Animal Care, Use, and Standards of our institute.
The anticonvulsant effect of HHL-6 using scPTZ test was evaluated by administering 20 mg/kg dose to groups of 6 mice at least 30 min before subcutaneous administration of convulsive dose of PTZ (90 mg/kg). After PTZ administration, animals were isolated and observed for an hour for the presence or absence of different types of seizure patterns. Latency to PTZ-induced threshold seizures was also calculated. The latency to threshold seizure is defined as the interval between the time of the PTZ-injection and the occurrence of first episode of threshold seizure. Protection of testing material against PTZ-induced mortality within 24 hours was also evaluated. In all experiments, diazepam (7.5 mg/kg i.p) was used as positive control.
In Table 3, the HHL-6 and diazepam were injected intraperitoneally 30 min before the administration of subcutaneous pentylenetetrazole (90 mg/kg) in their respective groups. Values are presented as mean for the duration of tonic seizure for 6 mice.

Data set [3] has as its system scPTZ-induced kindling in mice. Nature of the data set: PTZ-induced kindling test (Racine's scale seizure score). The data set is classed as in vivo. As for the experimental part:
as §3
Sub-convulsive dose (50 mg/kg) of PTZ was given subcutaneously to all groups (n=12/group) except normal control after every 48 hours. In normal control group, instead of PTZ, saline was used. The drug control groups received daily administration of diazepam (7.5 mg/kg). The test group was treated with the HHL-6 (20 mg/kg) once daily. Racine's scale was used to score the seizure activity such as stage 0: no response; stage 1: ear and facial twitching; stage 2: convulsive wave through the body; stage 3: myoclonic jerks, stage 4: clonic-tonic convulsions, turnover into side position; stage 5: generalized clonic-tonic seizures, loss of postural control. Animals showing score 4 or 5 were considered to be fully kindled.

For data set [4] the following is noted: HHL-6 20 mg/kg; 30 min and 1 h after injection. As for the experimental part: This was examined by Traction test. The forepaws of a mouse were placed on a small twisted wire rigidly supported above a bench top. Normal mice grasped the wire with forepaws and when allowed to hang free, placed at least one hind foot on the wire within 5 seconds. Inability to put up at least one hind foot constituted failure to the traction. The test was conducted at 30 min and 1 h after the injection of saline, diazepam or HHL-6.

[5] abbreviates: HHL-6 20 mg/kg, PTZ 90 mg/kg s.c.
The mark [6] stands for this setting: PTZ 90 mg/kg s.c., HHL-6 20 mg/kg.

With `CCCCCC(=O)NCCc1c(C(C)=O)[nH]c2c(OC)cccc12` [HHL-6, 2-acetyl-3-(2-hexanoylamidoethyl)-7-methoxyindole], the “BDNF staining intensity (FIG. 5B)” value in the data set with BDNF protein expression came to 26.2±5.4. In the data set with c-Fos protein expression, the “Fluorescence intensity of c-Fos, Amygdala” value was found to be 15.21 ± 2.3 arbitrary unit; the “Fluorescence intensity of c-Fos, Thalamus” value was determined as 15.58 ± 3.74 arbitrary unit; the “Fluorescence intensity of c-Fos, Hippocampus” value stood at 16.92 ± 2.75 arbitrary unit; the “Fluorescence intensity of c-Fos, Cortex” value was determined as 18.24 ± 3.2 arbitrary unit. The “c-Fos staining intensity (FIG. 4B)” value with c-Fos protein expression is reported as 18.24±3.2. Besides, in data set [1], the “alteration in normal behavior pattern” value is “did not show any alteration in their normal behavior pattern” and the hyper-excitability or sedation entry is reported as “not observed”. Moreover, in data set [2] (setting [5]), the protection from jerks entry is on record as “unable to provide protection from jerks”; the “protection from tonic fore limb and hind limb seizures” value turned out to be 100%. Moreover, in data set [2] (PTZ 90 mg/kg s.c.), the “mortality in scPTZ test” value is “Mortality was not demonstrated”. Besides, in data set [2] (setting [6]), the “protection against scPTZ induced mortality” value is 100%. Further, in data set [2] (HHL-6 20 mg/kg), the Onset of jerks is 460 s and the “Rearing & falling” value was 0 s. Moreover, the “seizure score (kindling) after treatment day 13” value in data set [3] (HHL-6 20 mg/kg, PTZ 50 mg/kg on alternate days, 18 doses in 36 days) was determined as 0. Besides, the “seizure score (kindling)” value in data set [3] (treatment day 9 till 13, HHL-6 20 mg/kg once daily, PTZ 50 mg/kg s.c. every 48 hours, PTZ-kindled control average 4.9) is 0.3. For the same compound, in data set [4], the “muscle relaxant activity (traction test)” value is “did not observed muscle relaxant activity”.
For the compound `CN1C(=O)CN=C(c2ccccc2)c2cc(Cl)ccc21` [diazepam, reference compound], in the data set with BDNF protein expression, the “BDNF staining intensity (FIG. 5B)” value came to 31.5±7.6. In addition, in the data set on c-Fos protein expression, the “Fluorescence intensity of c-Fos, Amygdala” value was 14.94 ± 1.99 arbitrary unit; the “Fluorescence intensity of c-Fos, Thalamus” value stood at 18.33 ± 2.19 arbitrary unit; the “Fluorescence intensity of c-Fos, Hippocampus” value is reported as 20.09 ± 3.77 arbitrary unit; the “Fluorescence intensity of c-Fos, Cortex” value was determined as 17.28 ± 3.6 arbitrary unit. In addition, in the data set on c-Fos protein expression, the “c-Fos staining intensity (FIG. 4B)” value was found to be 17.28±4.6. In data set [2] (PTZ 90 mg/kg s.c.), the “mortality in scPTZ test” value was “Mortality was not demonstrated”. The “protection against scPTZ induced mortality” value in data set [2] (setting [6]) is 100%. Also, in data set [2] (HHL-6 20 mg/kg), the Onset of jerks turned out to be 0 s and the “Rearing & falling” value was found to be 0 s. Also, the “seizure pattern till the end of the kindling protocol” value in data set [3] (diazepam 7.5 mg/kg daily, PTZ 50 mg/kg s.c. every 48 hours) is reported as “did not exhibit any seizure pattern”.

The values above are taken from patent US9272998B1, “Modulation of c-FOS and BDNF protein expression in pentylenetetrazole-kindled mice following the treatment with novel anti-epileptic compound HHL-6” (priority 2015, dated 2016).
